Where two headings read alike, the source gives them in different places.
Experiments:
human DPP1 enzyme = human DPP1 enzyme (Homo sapiens (Human), UniProt P53634); assay: Human DPP1 enzyme IC50 assay; type: biochemical
Procedure, shortened: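 Fluorogenic readout (350/450 nm, every 5 min over 90 min, 37°C) of H-Gly-Arg-AMC cleavage at 400 μM final substrate. Compounds met activated DPP1 first for a 10-min 37°C pre-incubation in MES buffer pH 6.0 with DTT, 1% DMSO final. Four-parameter sigmoidal fit gave IC50.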

DPP1 in HL-60 cells = DPP1 in HL-60 cells (Homo sapiens (Human), UniProt P53634); assay: DPP1 Cell IC50 assay; type: cell-based; details: H-Gly-Phe-AFC substrate, 60 min pre-incubation
Method: Media was changed every three to four days and cells were not allowed to exceed 1×10^6 cells per mL. Prior to assay, cells were collected by centrifugation at 500 rcf for 3 minutes, resuspended in PBS and counted. Cells were diluted in PBS to a concentration of 5×10^5 live cells per mL and transferred to black 96-well plates for assay, 60 μL per well. Test articles were diluted in PBS plus 0.5% DMSO, and 20 μL was added to each assay well. Compound was allowed to pre-incubate with cells with gentle shaking at 100 rpm for 60 minutes at 37° C. in a cell culture incubator maintained at 5% CO2, after which 20 μL of 500 μM H-Gly-Phe-AFC substrate (MP Biomedicals; Solon, OH) was added to each well. Plates were returned to the incubator with shaking at 100 rpm for 30 minutes, after which fluorescence was measured at Excitation/Emission 400/505 nm. % Inhibition was calculated from RFU values compared to control cell wells that received only PBS plus 0.5% DMSO. IC50 values for each compound were calculated via the XLFit (IDBS Version 5.3.1.3) Add-On to Microsoft Excel using the four parameter fit equation y=(A+((B-A)/(1+((C/x)^D)))), which appears as equation number 205 (4 Parameter Logistic Model or Sigmoidal Dose-Response Model) in XLFit.

[1] = recombinant human DPP1, H-Gly-Arg-AMC substrate 400 μM

Sequence of DPP1 in HL-60 cells (P53634 25-134): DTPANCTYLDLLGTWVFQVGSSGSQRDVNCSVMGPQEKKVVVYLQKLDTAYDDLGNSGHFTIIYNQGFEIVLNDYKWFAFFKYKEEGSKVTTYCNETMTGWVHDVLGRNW
Sequence of DPP1 in HL-60 cells (P53634 231-394): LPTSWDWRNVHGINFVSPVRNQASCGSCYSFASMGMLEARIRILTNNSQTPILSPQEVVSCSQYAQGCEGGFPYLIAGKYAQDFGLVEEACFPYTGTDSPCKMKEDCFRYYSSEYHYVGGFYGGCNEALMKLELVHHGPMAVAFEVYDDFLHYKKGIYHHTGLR
Sequence of DPP1 in HL-60 cells (P53634 395-463): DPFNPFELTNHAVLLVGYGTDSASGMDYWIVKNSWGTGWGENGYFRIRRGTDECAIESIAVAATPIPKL
Sequence of human DPP1 enzyme (P53634 25-134): as the sequence (P53634 25-134) above
Sequence of human DPP1 enzyme (P53634 231-394): as the sequence (P53634 231-394) above
Sequence of human DPP1 enzyme (P53634 395-463): as the sequence (P53634 395-463) above

SMILES	IC50 (human DPP1 enzyme; [1])	IC50 (DPP1 in HL-60 cells)	IC50 (human DPP1 enzyme)
Cn1c(=O)oc2ccc(-c3ccc(C[C@@H](C#N)NC(=O)C(N)Cc4cccnc4O)cc3)cc21 (stereo partly drawn) [Compound 199, 2-amino-N-[(1S)-1-cyano-2-[4-(3-methyl-2-oxo-1,3-benzoxazol-5-yl)phenyl]ethyl]-3-(2-hydroxypyridin-3-yl)propanamide]	≥ 15 nM	≥ 2.5 nM	
Cn1c(=O)oc2ccc(-c3ccc(C[C@@H](C#N)NC(=O)C(N)Cc4cncs4)cc3)cc21 (stereo partly drawn) [Compound 201, 2-amino-N-[(1S)-1-cyano-2-[4-(3-methyl-2-oxo-1,3-benzoxazol-5-yl)phenyl]ethyl]-3-(1,3-thiazol-5-yl)propanamide]	≥ 15 nM	≥ 2.5 nM	
Cn1c(=O)oc2ccc(-c3ccc(C[C@@H](C#N)NC(=O)[C@@H](N)Cc4cccnc4)cc3)cc21 [Compound 202, (S)-2-amino-N—((S)-1-cyano-2-(4-(3-methyl-2-oxo-2,3-dihydrobenzo[d]oxazol-5-yl)phenyl)ethyl)-3-(pyridin-3-yl)propanamide]	5 to 15 nM	≥ 2.5 nM	
Cn1c(=O)oc2ccc(-c3ccc(C[C@@H](C#N)NC(=O)C(N)Cc4ccccc4O)cc3)cc21 (stereo partly drawn) [Compound 203, 2-amino-N-[(1S)-1-cyano-2-[4-(3-methyl-2-oxo-1,3-benzoxazol-5-yl)phenyl]ethyl]-3-(2-hydroxyphenyl)propanamide]	5 to 15 nM	≥ 2.5 nM	
Cn1c(=O)oc2ccc(-c3ccc(C[C@@H](C#N)NC(=O)C(N)Cc4cocn4)cc3)cc21 (stereo partly drawn) [Compound 204, 2-amino-N-[(1S)-1-cyano-2-[4-(3-methyl-2-oxo-1,3-benzoxazol-5-yl)phenyl]ethyl]-3-(1,3-oxazol-4-yl)propanamide]	≤ 5 nM	1 to 2.5 nM	
Cn1c(=O)oc2ccc(-c3ccc(C[C@@H](C#N)NC(=O)[C@@H](N)[C@@H]4CCc5ccccc54)cc3)cc21 [Compound 206, (S)-2-amino-N—((S)-1-cyano-2-(4-(3-methyl-2-oxo-2,3-dihydrobenzo[d]oxazol-5-yl)phenyl)ethyl)-2-((R)-2,3-dihydro-1H-inden-1-yl)acetamide]	≥ 15 nM	≥ 2.5 nM	
Cn1c(=O)oc2ccc(-c3ccc(C[C@@H](C#N)NC(=O)[C@@H](N)[C@H]4CCc5ccccc54)cc3)cc21 [Compound 207, (S)-2-amino-N—((S)-1-cyano-2-(4-(3-methyl-2-oxo-2,3-dihydrobenzo[d]oxazol-5-yl)phenyl)ethyl)-2-((S)-2,3-dihydro-1H-inden-1-yl)acetamide]	≥ 15 nM	≥ 2.5 nM	
Cn1c(=O)oc2ccc(-c3ccc(C[C@@H](C#N)NC(=O)C(N)Cc4cc[nH]c4)cc3)cc21 (stereo partly drawn) [Compound 208, 2-amino-N-[(1S)-1-cyano-2-[4-(3-methyl-2-oxo-1,3-benzoxazol-5-yl)phenyl]ethyl]-3-(1H-pyrrol-3-yl)propanamide]		≥ 2.5 nM	< 5 nM
Cn1c(=O)oc2ccc(-c3ccc(C[C@@H](C#N)NC(=O)[C@H](N)[C@H]4CCCO4)cc3)cc21 [Compound 211, (2R)-2-amino-N-[(1S)-1-cyano-2-[4-(3-methyl-2-oxo-1,3-benzoxazol-5-yl)phenyl]ethyl]-2-[(2R)-oxolan-2-yl]acetamide]	≥ 15 nM	≥ 2.5 nM	
Cn1c(=O)oc2ccc(-c3ccc(C[C@@H](C#N)NC(=O)[C@H](N)[C@@H]4CCCO4)cc3)cc21 [Compound 213, (2R)-2-amino-N-[(1S)-1-cyano-2-[4-(3-methyl-2-oxo-1,3-benzoxazol-5-yl)phenyl]ethyl]-2-[(2S)-oxolan-2-yl]acetamide]	≥ 15 nM	≥ 2.5 nM	
Cn1c(=O)oc2ccc(-c3ccc(C[C@@H](C#N)NC(=O)[C@@H](N)Cc4cn[nH]c4)cc3)cc21 [Compound 214, (2S)-2-amino-N-[(1S)-1-cyano-2-[4-(3-methyl-2-oxo-1,3-benzoxazol-5-yl)phenyl]ethyl]-3-(1H-pyrazol-4-yl)propanamide]	≥ 15 nM	≥ 2.5 nM	
Cn1c(=O)oc2ccc(-c3ccc(C[C@@H](C#N)NC(=O)[C@H](N)Cc4c[nH]cn4)cc3)cc21 [Compound 215, (2R)-2-amino-N-[(1S)-1-cyano-2-[4-(3-methyl-2-oxo-1,3-benzoxazol-5-yl)phenyl]ethyl]-3-(1H-imidazol-4-yl)propanamide]	≥ 15 nM	≥ 2.5 nM	
Cn1c(=O)oc2ccc(-c3ccc(C[C@@H](C#N)NC(=O)C(N)Cc4ncsc4Cl)cc3)cc21 (stereo partly drawn) [Compound 218, 2-amino-3-(5-chloro-1,3-thiazol-4-yl)-N-[(1S)-1-cyano-2-[4-(3-methyl-2-oxo-1,3-benzoxazol-5-yl)phenyl]ethyl]propanamide]	5 to 15 nM	≥ 2.5 nM	
Cn1c(=O)oc2ccc(-c3ccc(C[C@@H](C#N)NC(=O)C(C)(N)C4CCCC4)cc3)cc21 (stereo partly drawn) [Compound 219, 2-amino-N-[(1S)-1-cyano-2-[4-(3-methyl-2-oxo-1,3-benzoxazol-5-yl)phenyl]ethyl]-2-cyclopentylpropanamide]	≤ 5 nM	1 to 2.5 nM	
Cn1c(=O)oc2ccc(-c3ccc(C[C@@H](C#N)NC(=O)C(C)(N)C4CCC4)cc3)cc21 (stereo partly drawn) [Compound 220, 2-amino-N-[(1S)-1-cyano-2-[4-(3-methyl-2-oxo-1,3-benzoxazol-5-yl)phenyl]ethyl]-2-cyclobutylpropanamide]	≤ 5 nM	1 to 2.5 nM	
Cn1c(=O)oc2ccc(-c3ccc(C[C@@H](C#N)NC(=O)C(N)Cc4cc[nH]n4)cc3)cc21 (stereo partly drawn) [Compound 221, 2-amino-N-[(1S)-1-cyano-2-[4-(3-methyl-2-oxo-1,3-benzoxazol-5-yl)phenyl]ethyl]-3-(1H-pyrazol-3-yl)propanamide]	≤ 5 nM	≥ 2.5 nM	
Cn1c(=O)oc2ccc(-c3ccc(C[C@@H](C#N)NC(=O)C4(N)CCCC45CC5)cc3)cc21 (stereo partly drawn) [Compound 222, 4-amino-N-[(1S)-1-cyano-2-[4-(3-methyl-2-oxo-1,3-benzoxazol-5-yl)phenyl]ethyl]spiro[2.4]heptane-4-carboxamide]	≤ 5 nM	1 to 2.5 nM	
Cn1c(=O)oc2ccc(-c3ccc(C[C@@H](C#N)NC(=O)C(N)Cc4ccon4)cc3)cc21 (stereo partly drawn) [Compound 231, 2-amino-N-[(1S)-1-cyano-2-[4-(3-methyl-2-oxo-1,3-benzoxazol-5-yl)phenyl]ethyl]-3-(1,2-oxazol-3-yl)propanamide]	≤ 5 nM	≥ 2.5 nM	
C[C@@H](NCc1cccs1)C(=O)N[C@H](C#N)Cc1ccc(-c2ccc3oc(=O)n(C)c3c2)cc1 [Compound 232, (2R)—N-[(1S)-1-cyano-2-[4-(3-methyl-2-oxo-1,3-benzoxazol-5-yl)phenyl]ethyl]-2-[(thiophen-2-ylmethyl)amino]propanamide]	≥ 15 nM	≥ 2.5 nM	
N#Cc1ccc(-c2ccc(C[C@H](C#N)NC(=O)C3(N)CCOCC3)c(I)c2)cc1 [Compound 249, 4-amino-N-[(1R)-1-cyano-2-{4′-cyano-3-iodo-[1,1′-biphenyl]-4-yl}ethyl]oxane-4-carboxamide]	≥ 15 nM	≥ 2.5 nM	
Cn1ccc(CC(N)C(=O)N[C@H](C#N)Cc2ccc(-c3ccc4oc(=O)n(C)c4c3)cc2)c1 (stereo partly drawn) [Compound 254, 2-amino-N-[(1S)-1-cyano-2-[4-(3-methyl-2-oxo-1,3-benzoxazol-5-yl)phenyl]ethyl]-3-(1-methylpyrrol-3-yl)propanamide]	5 to 15 nM	≥ 2.5 nM	
COCCN(C)CCn1c(=O)oc2ccc(-c3ccc(C[C@@H](C#N)NC(=O)[C@@](C)(N)C4CCCC4)cc3)cc21 [Compound 258A, (2S)-2-amino-N-[(1S)-1-cyano-2-[4-(3-{2-[(2-methoxyethyl)(methyl)amino]ethyl}-2-oxo-1,3-benzoxazol-5-yl)phenyl]ethyl]-2-cyclopentylpropanamide]	≥ 15 nM	≥ 2.5 nM	
COCCN(C)CCn1c(=O)oc2ccc(-c3ccc(C[C@@H](C#N)NC(=O)[C@](C)(N)C4CCCC4)cc3)cc21 [Compound 258B, (2R)-2-amino-N-[(1S)-1-cyano-2-[4-(3-{2-[(2-methoxyethyl)(methyl)amino]ethyl}-2-oxo-1,3-benzoxazol-5-yl)phenyl]ethyl]-2-cyclopentylpropanamide]	≤ 5 nM	1 to 2.5 nM	
CCN1C(=O)Cc2ccc(-c3ccc(C[C@@H](C#N)NC(=O)[C@@](C)(N)C4CCCC4)cc3)cc21 [Compound 259A, (2S)-2-amino-N-[(1S)-1-cyano-2-[4-(1-ethyl-2-oxo-3H-indol-6-yl)phenyl]ethyl]-2-cyclopentylpropanamide]	≤ 5 nM	1 to 2.5 nM	
CCN1C(=O)Cc2ccc(-c3ccc(C[C@@H](C#N)NC(=O)[C@@](C)(N)C4CCCC4)c(F)c3)cc21 [Compound 264A, (2S)-2-amino-N-[(1S)-1-cyano-2-[4-(1-ethyl-2-oxo-3H-indol-6-yl)-2-fluorophenyl]ethyl]-2-cyclopentylpropanamide]	≥ 15 nM	≥ 2.5 nM	
CCN1C(=O)Cc2ccc(-c3ccc(C[C@@H](C#N)NC(=O)[C@](C)(N)C4CCCC4)c(F)c3)cc21 [Compound 264B, (2R)-2-amino-N-[(1S)-1-cyano-2-[4-(1-ethyl-2-oxo-3H-indol-6-yl)-2-fluorophenyl]ethyl]-2-cyclopentylpropanamide]	≤ 5 nM	1 to 2.5 nM	

From patent US20260008758A1, “LINEAR DIPEPTIDYL PEPTIDASE 1 INHIBITORS AND USES THEREOF” (Insmed Incorporated, priority 2024, published 2026)
